Patent publication US20190038588A1, “NOVEL CLASS OF COMPOUNDS FOR THE TREATMENT OF CARDIOVASCULAR DISEASE” (STICHTING KATHOLIEKE UNIVERSITEIT, priority 2016, published 2019)
Marks after values point to notes of the source that are not given here.

Assays:
[1] = target: T1, mitochondrial complex III (Mus musculus, UniProt P00158); assay: Complex III enzyme activity in mitochondrial fractions of C2C12 cells (cytochrome c reduction at 550 nm); type: biochemical; conditions: compound at 100 μM; background by antimycin A (2.5 μM); n = 3 independent experiments
T1 construct: the supernatant containing the mitochondria was pelleted at 14,000 g; endogenous in cells; host or cells: C2C12 cells, mitochondrial fraction
Experimental: C2C12 pellets of 20·10^6 cells were snap frozen in liquid nitrogen and kept at −80° C. until use. For preparation of the mitochondrial fractions, tissues and cells were homogenized, resuspended in 10 mM Tris-HCl (pH 7.6), and snap frozen in aliquots as follows: cells were resuspended in 10 mM Tris-HCl and pottered, and sucrose was added (215 mM). The lysate was cleared of unbroken cells by centrifugation (10 minutes 600 g) after which the supernatant containing the mitochondria was pelleted at 14,000 g for 10 minutes, resuspended in 10 mM Tris-HCl (pH 7.6), and snap frozen in aliquots. Complex III enzyme activity was measured spectrophotometrically in duplicate as described before by determination of the cytochrome c reduction at 550 nm (Janssen et al., 2007; Mourmans et al., 1997; Rodenburg, 2011). For these measurements the following substrates were used: decylubiquinol (300 μM) and cytochrome c (50 μM). Background substraction was based on decylubiquinol auto-oxidation rates for FIG. 2, and on antimycin A (2.5 μM) for table 4. The enzyme activity was determined using the linear domain of the curve. These experiments were generally performed in small reaction volumes to increase throughput. Experiments in larger reaction volumes can improve reliability of obtained values, and are planned.

[2] = target: T2, catalytic domain of the human HMG-CoA reductase (Homo sapiens, UniProt P04035); assay: HMG-CoA reductase activity and inhibition assay (Sigma CS-1090 kit, NADPH oxidation at 340 nm); type: biochemical; conditions: for HMGR activity (% of control) Mean (SEM): compound at 300 nM, n = 3 independent experiments
T2 construct: containing the catalytic domain of the human HMG-CoA reductase; purchased Sigma-Aldrich CS-1090
T2 sequence (P04035 426-888 limits assumed): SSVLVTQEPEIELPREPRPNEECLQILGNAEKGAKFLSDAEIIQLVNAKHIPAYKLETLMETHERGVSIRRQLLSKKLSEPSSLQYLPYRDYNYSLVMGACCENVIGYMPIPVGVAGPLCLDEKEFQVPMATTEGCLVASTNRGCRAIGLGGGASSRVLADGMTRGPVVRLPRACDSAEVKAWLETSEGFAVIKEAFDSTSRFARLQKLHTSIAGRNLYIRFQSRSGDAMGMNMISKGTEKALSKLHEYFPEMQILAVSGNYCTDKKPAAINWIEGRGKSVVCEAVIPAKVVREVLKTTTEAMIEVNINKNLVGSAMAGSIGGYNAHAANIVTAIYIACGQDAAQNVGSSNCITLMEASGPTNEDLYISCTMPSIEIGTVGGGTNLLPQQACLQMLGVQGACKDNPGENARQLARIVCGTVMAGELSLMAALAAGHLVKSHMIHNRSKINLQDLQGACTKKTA
Experimental: The human HMG-CoA reductase activity and inhibition assays were performed using the HMG-CoA reductase Assay Kit from Sigma-Aldrich (Sigma CS-1090), containing the catalytic domain of the human HMG-CoA reductase. Enzyme activity was determined spectrophotometrically, measuring the oxidation of NADPH at 340 nm. The reaction mixture contained: 0.13 mM HMG-CoA, HMG-CoA reductase, and 50 mM Tris-HCl, (pH 7.5). After 15 min incubation at 37° C., the reaction was started with the addition of 0.13 mM NADPH, and monitored for 30 min. The enzyme activity was determined using the linear domain of the curve. These experiments were generally performed in small reaction volumes to increase throughput. Experiments in larger reaction volumes can improve reliability of obtained values, and are planned.

Structure (SMILES) | complex III activity (% of control) Mean (SEM) [1] | HMGR activity (% of control) Mean (SEM) [2] | IC50 ([2]; dose-response curve of FIG. 2C, 95%-CI printed in the row below) [nM]
CC(C)c1c(C(=O)Nc2ccccc2)c(-c2ccccc2)c(-c2ccc(F)cc2)n1CC[C@@H](O)C[C@@H](O)CC(N)=O [atorvastatin amide, 1-((3R,5R)-7-amino-3,5-dihydroxy-7-oxoheptyl)-5-(4-fluorophenyl)-2-isopropyl-N,4-diphenyl-1H-pyrrole-3-carboxamide] | 54.34 (7.70) % of control | 97.37 (3.89) % of control | 
CC(C)c1c(C(=O)Nc2ccccc2)c(-c2ccccc2)c(-c2ccc(F)cc2)n1CC[C@@H](O)C[C@@H](O)CC(=O)O [atorvastatin carboxylic acid, reference compound] |  | 24.39 (8.91) % of control | 
CC(C)c1c(C(=O)Nc2ccccc2)c(-c2ccccc2)c(-c2ccc(F)cc2)n1CC[C@@H](O)C[C@@H](O)CC(=O)NO [atorvastatin hydroxamic acid, 1-((3R,5R)-3,5-dihydroxy-7-(hydroxyamino)-7-oxoheptyl)-5-(4-fluorophenyl)-2-isopropyl-N,4-diphenyl-1H-pyrrole-3-carboxamide] | 105.60 (13.57) % of control | 60.87 (4.50) % of control | 
CC(C)c1c(C(=O)Nc2ccccc2)c(-c2ccccc2)c(-c2ccc(F)cc2)n1CC[C@@H]1C[C@H](O)CC(=O)O1 [atorvastatin lactone, 5-(4-fluorophenyl)-1-(2-((2R,4S)-4-hydroxy-6-oxotetrahydro-2H-pyran-2-yl)ethyl)-2-isopropyl-N,4-diphenyl-1H-pyrrole-3-carboxamide, reference compound] | 80.98 (3.75) % of control |  | 
CC[C@H](C)C(=O)O[C@H]1C[C@@H](C)C=C2C=C[C@H](C)[C@H](CC[C@@H](O)C[C@@H](O)CC(N)=O)[C@H]21 [lovastatin amide, (1S,3R,7S,8S,8aR)-8-((3R,5R)-7-amino-3,5-dihydroxy-7-oxoheptyl)-3,7-dimethyl-1,2,3,7,8,8a-hexahydronaphthalen-1-yl (S)-2-methylbutanoate] | 104.10 (12.47) % of control | 102.30 (10.00) % of control | 
CC[C@H](C)C(=O)O[C@H]1C[C@@H](C)C=C2C=C[C@H](C)[C@H](CC[C@@H](O)C[C@@H](O)CC(=O)O)[C@H]21 [lovastatin carboxylic acid, reference compound] |  | 68.18 (14.81) % of control | 
CC[C@H](C)C(=O)O[C@H]1C[C@@H](C)C=C2C=C[C@H](C)[C@H](CC[C@@H](O)C[C@@H](O)CC(=O)NO)[C@H]21 [lovastatin hydroxamic acid, (1S,3R,7S,8S,8aR)-8-((3R,5R)-3,5-dihydroxy-7-(hydroxyamino)-7-oxoheptyl)-3,7-dimethyl-1,2,3,7,8,8a-hexahydronaphthalen-1-yl (S)-2-methylbutanoate] | 92.95 (10.32) % of control | 70.19 (6.79) % of control | 
CC[C@H](C)C(=O)O[C@H]1C[C@@H](C)C=C2C=C[C@H](C)[C@H](CC[C@@H]3C[C@@H](O)CC(=O)O3)[C@H]21 [lovastatin lactone, reference compound] | 63.21 (3.31) % of control |  | 
CC(C)c1nc(N(C)S(C)(=O)=O)nc(-c2ccc(F)cc2)c1/C=C/[C@@H](O)C[C@@H](O)CC(N)=O [rosuvastatin amide, (3R,5S,E)-7-(4-(4-fluorophenyl)-6-isopropyl-2-(N-methylmethylsulfonamido)-pyrimidin-5-yl)-3,5-dihydroxyhept-6-enamide] | 94.39 (6.41) % of control | 81.57 (10.29) % of control | 
CC(C)c1nc(N(C)S(C)(=O)=O)nc(-c2ccc(F)cc2)c1/C=C/[C@@H](O)C[C@@H](O)CC(=O)O [rosuvastatin carboxylic acid, reference compound] |  | 24.09 (3.30) % of control | 
CC(C)c1nc(N(C)S(C)(=O)=O)nc(-c2ccc(F)cc2)c1/C=C/[C@@H](O)C[C@@H](O)CC(=O)N(C)C [rosuvastatin dimethylamide, (3R,5S,E)-7-(4-(4-fluorophenyl)-6-isopropyl-2-(N-methylmethylsulfonamido)-pyrimidin-5-yl)-3,5-dihydroxy-N,N-dimethylhept-6-enamide] | 88.90 (7.89) % of control | 91.35 (15.32) % of control | 
CC(C)c1nc(N(C)S(C)(=O)=O)nc(-c2ccc(F)cc2)c1/C=C/[C@@H](O)C[C@@H](O)CC(=O)NO [rosuvastatin hydroxamic acid, (3R,5S,E)-7-(4-(4-fluorophenyl)-6-isopropyl-2-(N-methylmethylsulfonamido)pyrimidin-5-yl)-N,3,5-trihydroxyhept-6-enamide] | 90.25 (7.98) % of control | 72.81 (9.03) % of control | 
CNC(=O)C[C@H](O)C[C@H](O)/C=C/c1c(-c2ccc(F)cc2)nc(N(C)S(C)(=O)=O)nc1C(C)C [rosuvastatin methylamide, (3R,5S,E)-7-(4-(4-fluorophenyl)-6-isopropyl-2-(N-methylmethylsulfonamido)-pyrimidin-5-yl)-3,5-dihydroxy-N-methylhept-6-enamide] | 83.54 (5.98) % of control | 82.82 (12.67) % of control | 
CC(C)c1nc(N(C)S(C)(=O)=O)nc(-c2ccc(F)cc2)c1/C=C/[C@@H](O)C[C@@H](O)CC#N [rosuvastatin nitrile, N-(5-((3S,5S,E)-6-cyano-3,5-dihydroxyhex-1-en-1-yl)-4-(4-fluorophenyl)-6-isopropylpyrimidin-2-yl)-N-methylmethanesulfonamide] | 95.96 (11.43) % of control | 102.50 (7.87) % of control | 
CC(C)c1nc(N(C)S(C)(=O)=O)nc(-c2ccc(F)cc2)c1/C=C/[C@@H](O)C[C@@H](O)c1nc(=O)o[nH]1 [rosuvastatin nor-oxo-oxadiazole, N-(5-((3S,5R,E)-3,5-dihydroxy-5-(5-oxo-2,5-dihydro-1,2,4-oxadiazol-3-yl)pent-1-en-1-yl)-4-(4-fluorophenyl)-6-isopropylpyrimidin-2-yl)-N-methylmethane-sulfonamide] | 143.50 (15.67) % of control | 100.30 (7.82)^a % of control | 
CC(C)c1nc(N(C)S(C)(=O)=O)nc(-c2ccc(F)cc2)c1/C=C/[C@@H](O)C[C@@H](O)c1nnn[nH]1 [rosuvastatin nor-tetrazole, N-(5-((3S,5R,E)-3,5-dihydroxy-5-(1H-tetrazol-5-yl)pent-1-en-1-yl)-4-(4-fluorophenyl)-6-isopropylpyrimidin-2-yl)-N-methylmethanesulfonamide] | 134.50 (17.29) % of control | 86.12 (5.73) % of control | 
CCC(C)(C)C(=O)O[C@H]1C[C@@H](C)C=C2C=C[C@H](C)[C@H](CC[C@@H](O)C[C@@H](O)CC(=O)O)[C@H]21 [simvastatin carboxylic acid, reference compound] |  | 63.10 (10.70) % of control | 39
CCC(C)(C)C(=O)O[C@H]1C[C@@H](C)C=C2C=C[C@H](C)[C@H](CC[C@@H]3C[C@@H](O)CC(=O)O3)[C@H]21 [simvastatin lactone, reference compound] | 44.55 (6.27) % of control |  | 
